How the values were obtained:
Type in all cases: functional
[1] = tested on: Aphis medicaginis; assay: Insecticidal activity against Aphis medicaginis assessed as insect mortality at 10 mg/L measured after 72 hr post compound treatment
[2] = tested on: Aphis medicaginis; assay: Insecticidal activity against Aphis medicaginis assessed as insect mortality at 100 mg/L measured after 72 hr post compound treatment
[3] = tested on: Aphis medicaginis; assay: Insecticidal activity against Aphis medicaginis assessed as insect mortality at 500 mg/L measured after 72 hr post compound treatment

Row | Compound | mortality at 10 µg/mL [1] [%] | mortality at 100 µg/mL [2] [%] | mortality at 500 µg/mL [3] [%]
1 | CCOC(=O)CC(CC(=O)OCC)N1CN/C(=N\[N+](=O)[O-])N(Cc2cnc(Cl)s2)C1 | ≥ 60 | ≥ 70 | ≥ 90
2 | O=[N+]([O-])/N=C1\NCCN1Cc1ccc(Cl)nc1 [IMIDACLOPRID] | 100 | 100 | 100
3 | CCOC(=O)CCCN1CN/C(=N\[N+](=O)[O-])N(Cc2cnc(Cl)s2)C1 | ≥ 80 | 100 | 100
4 | CCOC(=O)CCCN1CN/C(=N\[N+](=O)[O-])N(Cc2ccc(Cl)nc2)C1 | ≥ 80 | 100 | 100
5 | CCOC(=O)[C@H]([C@@H](C)CC)N1CN/C(=N\[N+](=O)[O-])N(Cc2cnc(Cl)s2)C1 | ≥ 50 | ≥ 60 | ≥ 80
6 | CCOC(=O)CCN1CN/C(=N\[N+](=O)[O-])N(Cc2cnc(Cl)s2)C1 | ≥ 60 | ≥ 70 | 100
7 | CCOC(=O)[C@H](Cc1ccccc1)N1CN/C(=N\[N+](=O)[O-])N(Cc2cnc(Cl)s2)C1 | – | ≥ 60 | ≥ 70
8 | CCOC(=O)[C@H]([C@@H](C)CC)N1CN/C(=N\[N+](=O)[O-])N(Cc2ccc(Cl)nc2)C1 | ≥ 60 | ≥ 80 | ≥ 80
9 | CCOC(=O)[C@H](Cc1ccccc1)N1CN/C(=N\[N+](=O)[O-])N(Cc2ccc(Cl)nc2)C1 | ≥ 50 | ≥ 60 | ≥ 70
10 | CCOC(=O)[C@H](C(C)C)N1CN/C(=N\[N+](=O)[O-])N(Cc2cnc(Cl)s2)C1 | ≥ 50 | ≥ 60 | ≥ 80
11 | CCOC(=O)[C@H](C)N1CN/C(=N\[N+](=O)[O-])N(Cc2ccc(Cl)nc2)C1 | ≥ 50 | ≥ 60 | ≥ 70
12 | CCOC(=O)[C@H](CC(C)C)N1CN/C(=N\[N+](=O)[O-])N(Cc2ccc(Cl)nc2)C1 | ≥ 70 | ≥ 80 | 100
13 | CCOC(=O)C[C@@H](C(=O)OCC)N1CN/C(=N\[N+](=O)[O-])N(Cc2cnc(Cl)s2)C1 | ≥ 70 | ≥ 80 | ≥ 90
14 | CCOC(=O)[C@@H](c1ccc(Cl)cc1)N1CN/C(=N\[N+](=O)[O-])N(Cc2ccc(Cl)nc2)C1 | ≥ 50 | ≥ 60 | ≥ 70
15 | CN1COCN(Cc2cnc(Cl)s2)/C1=N\[N+](=O)[O-] [THIAMETHOXAM] | 100 | 100 | 100
16 | CCOC(=O)[C@H](CCSC)N1CN/C(=N\[N+](=O)[O-])N(Cc2cnc(Cl)s2)C1 | ≥ 50 | ≥ 60 | ≥ 90
17 | CCOC(=O)[C@@H](c1ccc(Cl)cc1)N1CN/C(=N\[N+](=O)[O-])N(Cc2cnc(Cl)s2)C1 | ≥ 90 | 100 | 100
18 | CCOC(=O)[C@H](CC(C)C)N1CN/C(=N\[N+](=O)[O-])N(Cc2cnc(Cl)s2)C1 | ≥ 80 | 100 | 100
19 | CCOC(=O)C[C@@H](C(=O)OCC)N1CN/C(=N\[N+](=O)[O-])N(Cc2ccc(Cl)nc2)C1 | ≥ 60 | ≥ 70 | ≥ 90
20 | CCOC(=O)CCN1CN/C(=N\[N+](=O)[O-])N(Cc2ccc(Cl)nc2)C1 | ≥ 70 | ≥ 80 | 100
21 | CCOC(=O)[C@H](C)N1CN/C(=N\[N+](=O)[O-])N(Cc2cnc(Cl)s2)C1 | ≥ 60 | ≥ 60 | ≥ 80
22 | CCOC(=O)[C@H](C(C)C)N1CN/C(=N\[N+](=O)[O-])N(Cc2ccc(Cl)nc2)C1 | ≥ 60 | ≥ 70 | ≥ 80
23 | CCOC(=O)[C@H](CCSC)N1CN/C(=N\[N+](=O)[O-])N(Cc2ccc(Cl)nc2)C1 | – | ≥ 60 | ≥ 70
24 | CCOC(=O)CN1CN/C(=N\[N+](=O)[O-])N(Cc2ccc(Cl)nc2)C1 | ≥ 60 | ≥ 70 | ≥ 80
25 | CCOC(=O)CN1CN/C(=N\[N+](=O)[O-])N(Cc2cnc(Cl)s2)C1 | ≥ 60 | ≥ 70 | ≥ 80
26 | CCOC(=O)CC(CC(=O)OCC)N1CN/C(=N\[N+](=O)[O-])N(Cc2ccc(Cl)nc2)C1 | ≥ 60 | ≥ 70 | 100

From ChEMBL document CHEMBL3046602, “Chiral 1,5-disubstituted 1,3,5-hexahydrotriazine-2-N-nitroimine analogues as novel potent neonicotinoids: Synthesis, insecticidal evaluation and molecular docking studies” (2011)
